Columns and labels:
[1] = UV–Vis titration of HL-CH3 with Mn(ClO4)2, binding constant; conditions: Mn(II); 0.1 mM ligand, 5% v/v MeOH/BBS 50 mM, pH 7.4
Procedure: To evaluate the selectivity of these ligands towards copper, the same titrations were performed with different metal salts: Fe(ClO4)2, Mn(ClO4)2, and Zn(ClO4)2, monitoring the methyl-substituted ligand (Figures S39–S41). These metal ions were chosen because they are also divalent and common in biological matrixes.
For the determination of the binding constant between metals and ligands, a solution of the latter was titrated with 0.2 eq of metal for each addition. The titrating solutions were 10 mM and 100 μM for Cu(ClO4)2 versus 0.1 mM and 1 μM for the ligands in 5% v/v MeOH/BBS (50 mM, pH 7.4), respectively. […] The absorbance variation was monitored from 200 nm to 800 nm at 25 °C. […]
UV-vis spectra of ligands and complexes were recorded in a quartz cuvette, with 1 cm of optical path. […]
The titrating solutions were 10 mM and 100 μM for Cu(ClO4)2 versus 0.1 mM and 1 μM for the ligands in 5% v/v MeOH/BBS (50 mM, pH 7.4), respectively. […] The absorbance variation was monitored from 200 nm to 800 nm with a Varian Cary 50 instrument, thermostated at 25 °C.
The binding constants were then determined by nonlinear regression analysis of the plot “ΔAbs/b vs Cu(II) concentration” (Equation 7 ), according to K. Connors, The Measurement of Molecular Complex Stability, Madison, Wisconsin, Wiley, 1987[5]. […]
ΔA: absorbance at a certain wavelength. […]

[2] = Potentiometric titration of the free ligand (protonation constants); format: physicochemical
Procedure: As far as the ligand behavior in aqueous solutions is concerned, the speciation curves were obtained from the titration of an L-CH3 solution (0.1 mM in DMSO 5% (v/v)/H2O (HCl/KCl); initial pH = 2.7) by stepwise addition of NaOH 0.1 M. The distribution curves and the acid association constants were then calculated (Figure 1 and Table 1).
At low pH, L-CH3 has seven protic groups that can be deprotonated upon pH increase: besides the phenolic OH, two tertiary amines and four pyridines. From the titration, six logKa could be successfully obtained. The highest one, logKa = 9.75, is related to the phenolic group. The next constants are ascribed to the nitrogens of the tertiary amines and of the Pyr groups, although they are difficult to unambiguously correlate with a specific functional group. […] The potentiometric titration was carried out till pH 9.5 to avoid the precipitation of the ligand in the basic environment.
Potentiometric measurements were carried out using the Metrohm pH-meter system (Herisau, Switzerland) with a Metrohm semi-micro combination electrode at 25 °C, calibrated in a hydrogen ion concentration using HCl. The ligands were dissolved in DMSO (5% v/v/H2O (HCl/KCl)) in order to obtain a concentration of 1 mM. The titrant (KOH 0.1M) was added with a micrometric syringe at 298 K in the pH range of 2.5–11.5 in an argon atmosphere. The stability constants and stoichiometry of the complexes were calculated using the titration curves and the SUPERQUAD and HYPERQUAD [47, 48].

[3] = overall protonation constant, DMSO 5% (v/v)/H2O (HCl/KCl), 25 °C

Kbind [1]: 6.12 × 10^7 M^−2
log(Kbind) [1]: 7.78
logβi, L^− + 2H^+ ⇌ [H2L]^+ [2, 3]: 16.57 ± 0.01
logβi, L^− + 3H^+ ⇌ [H3L]^2+ [2, 3]: 21.56 ± 0.01
logβi, L^− + 4H^+ ⇌ [H4L]^3+ [2, 3]: 25.27 ± 0.01
logβi, L^− + 5H^+ ⇌ [H5L]^4+ [2, 3]: 27.83 ± 0.02
logβi, L^− + 6H^+ ⇌ [H6L]^5+ [2, 3]: 29.60 ± 0.11
logβi, L^− + H^+ ⇌ HL [2, 3]: 9.75 ± 0.01
logKa, HL + H^+ ⇌ [H2L]^+ ([2]; stepwise constant): 6.82
logKa, [H2L]^+ + H^+ ⇌ [H3L]^2+ ([2]; stepwise constant): 4.99
logKa, [H3L]^2+ + H^+ ⇌ [H4L]^3+ ([2]; stepwise constant): 3.71
logKa, [H4L]^3+ + H^+ ⇌ [H5L]^4+ ([2]; stepwise constant): 2.56
logKa, [H5L]^4+ + H^+ ⇌ [H6L]^5+ ([2]; stepwise constant): 1.77
logKa, L + H^+ ⇌ HL ([2]; stepwise constant, phenolic group): 9.75
SMILES: Cc1cc(CN(Cc2ccccn2)Cc2ccccn2)c(O)c(CN(Cc2ccccn2)Cc2ccccn2)c1 [HL-CH3, 2,6-bis[(bis(2-pyridylmethyl)amino)methyl]-4-methylphenol]

Source: paper PMC11643690, “Chelating Properties of N6O-Donors Toward Cu(II) Ions: Speciation in Aqueous Environments and Catalytic Activity of the Dinuclear Complexes” (Molecules, 2024)
